In brackets after ≈: the same amount, converted by molar mass. Like-named read-outs stand apart in the source and are kept apart here.
What was measured:
[1] = Solubility measurements in injection media (excess powder, HPLC); assay type: physicochemical; conditions: for solubility at 72 h: thermodynamic from solid; for aqueous solubility as times that of the parent drug (PTX): relative to PTX 0.4 μg/mL
Method: The flow rate was 1 mL/min, with the mobile phase starting at 50% acetonitrile and 50% water and transitioning to 60% acetonitrile and 40% water at 13 min, then returning to 50% acetonitrile and 50% water at 25 min. Chromatographic peaks of the three compounds were identified based on their retention times and chromatographic responses. Peak area measurements were utilized to regress calibration curves to determine each compound.
The test system was shaken at 25 °C for 72 h, then centrifugated at 10,000 rpm for 10 min. Each supernate was collected and 0.22 μm filtered off, then determined by HPLC.

[2] = Log P by miniaturized shake flask method (n-octanol/water); assay type: physicochemical; conditions: shaken 24 h, mean ± SD, n = 4
Method: Log P and was determined by a miniaturized shake flask method. Briefly, the organic phase consisted of n-octanol saturated with water. Respectively, the aqueous phase consisted of water saturated with n-octanol.

[3] = tested on: breast cancer cells MDA-MB-231; test: MTT cytotoxicity assay; assay type: cell-based; conditions: Homo sapiens
Method: (§1) In vitro anti-cancer effects against cancer cells and safety to normal cells of the prodrugs were evaluated by cytotoxicity.
(§2) MDA-MB-231 cells were seeded in a 96-well transparent plate, at a density of 5000 cells/well. […] After 72 h incubation, the plates were washed with HBSS and MTT solution was added. The final concentration of MTT in each well was 0.5 mg/mL. Then 4 h later, the solution on the plate was removed and the content was dissolved with DMSO [33].The absorption was measured at 490 nm and cell viability was calculated, cell viability% = OD of treated cells/OD of untreated cells × 100% [51].

[4] = tested on: normal breast cells Hs578Bst; test: MTT cytotoxicity assay; assay type: cell-based
Method: as §1, §2

[5] = tested on: ovarian cancer cells A2780; test: MTT cytotoxicity assay; assay type: cell-based; conditions: Homo sapiens
MDA-MB-231 cells = test: Annexin V-FITC/PI apoptosis assay (flow cytometry); assay type: cell-based; conditions: MDA-MB-231, 1 μM, 24 h
Method: Cell apoptosis was tested by an Annexin V-FITC/PI staining assay and analyzed by flow cytometry, the result is illustrated in Figure 6. According to Figure 6a, the four regions represent different cell stages. Q1 represents necrotic cells ([…]), Q2 and Q3 represent late apoptotic cells (Annexin V+/PI+) and early apoptotic cells (Annexin V+/PI–), and Q4 represents normal cells (Annexin V–/PI–).
MDA-MB-231 cells were seeded in a 6-well transparent plate, at a density of 5 × 10^5 cells/well. […] After 24 h incubation, the cells were harvested by trypsin, washed with HBSS, and 1 mL of binding buffer (containing Annexin V-FITC and PI) was added, final concentration of Annexin V-FITC and PI were both 1 μg/mL [52]. After that, the test system was incubated in the dark for 10 min, then analysis was immediately conducted by flow cytometry. The fluorescence intensity of Annexin V-FITC was measured at an excitation/emission wavelength of 488/530 nm, the fluorescence intensity of PI was measured at an excitation/emission wavelength of 488/617 nm. Each assay was repeated in triplicate.

[6] = cited from earlier work
[7] = Solubility of SG-PTX at various pH conditions; assay type: physicochemical
Method: An aqueous solution of different pH was adjusted by HCl or NaOH, Excess powder of SG-PTX was added to solutions of different pH, respectively. The test system was shaken at 25 °C for 72 h, then centrifugation at 10,000 rpm for 10 min. Each supernate was collected and 0.22 μm filtered off, then determined by HPLC.

[8] = Solubility of SG-PTX in various formulations (surfactant solutions); assay type: physicochemical; conditions: for solubility at 72 h: 25 °C, aqueous with cosolvent or surfactant or cyclodextrin, thermodynamic from solid, no ethanol, read-out: solubility in formulation
Method: Solubility of SG-PTX in various formulations was tested, SG-PTX was added into formulations with different proportion (v/v) of water and surfactants. These solubility tests were carried out according to the same protocol as aqueous solubility assays.
Solutions of different surfactants (Cremophor EL, Tween-80, and PEG-400) were prepared at different concentrations of 2.5%, 5%, 10%, and 15% (v/v). Excess powder of SG-PTX was added into different formulations, respectively. The test system was shaken at 25 °C for 72 h, then centrifugation at 10,000 rpm for 10 min. Each supernate was collected and 0.22 μm filtered off, then determined by HPLC.

[9] = 25 °C, saline or isotonic, 5% glucose solution, 25 °C, shaken 72 h, mean ± SD, n = 4, read-out: Solubility, 5% Glucose
[10] = 25 °C, saline or isotonic, saline, 25 °C, shaken 72 h, mean ± SD, n = 4, read-out: Solubility, Saline
[11] = 25 °C, water, pure water, 25 °C, shaken 72 h, mean ± SD, n = 4, read-out: Solubility, Pure Water

Structure (SMILES)	solubility at 72 h [1, 9] [µg/mL]	solubility at 72 h [1, 10] [µg/mL]	solubility at 72 h [1, 11] [µg/mL]	aqueous solubility as times that of the parent drug (PTX) [1] [times]	logP at 24 h [2]	IC50 ([3]; MDA-MB-231, 72 h) [nM]	IC50 ([4]; Hs578Bst, 72 h) [nM]	IC50 ([5]; A2780, 72 h) [nM]	total percentage of apoptotic cells (late apoptosis + early apoptosis) (MDA-MB-231 cells) [%]	also measured
CC(=O)O[C@H]1C(=O)[C@]2(C)[C@@H](OC(=O)CCC(=O)OC3O[C@H](CO)[C@@H](O)[C@H](O)[C@H]3O)C[C@H]3OC[C@@]3(OC(C)=O)[C@H]2[C@H](OC(=O)c2ccccc2)[C@]2(O)C[C@H](OC(=O)[C@H](OC(=O)CCC(=O)OC3O[C@H](CO)[C@@H](O)[C@H](O)[C@H]3O)[C@@H](NC(=O)c3ccccc3)c3ccccc3)C(C)=C1C2(C)C (stereo partly shown) [DG-PTX, C7 and C2′-double glycosylated paclitaxel]	34.8 ± 4.22 (≈ 25.2 µM)	36.7 ± 2.05 (≈ 26.6 µM)	39 ± 5.66 (≈ 28.3 µM)	97.4	2.12 ± 0.08	395	> 2000	1610	14.6	
CC(=O)O[C@H]1C(=O)[C@@]2(C)[C@H]([C@H](OC(=O)c3ccccc3)[C@]3(O)C[C@H](OC(=O)[C@H](O)[C@@H](NC(=O)c4ccccc4)c4ccccc4)C(C)=C1C3(C)C)[C@]1(OC(C)=O)CO[C@@H]1C[C@@H]2O [PTX, Paclitaxel, reference compound]									37.5	solubility at 72 h ([1]; 5% glucose solution, 25 °C, saline or isotonic, 5% glucose solution, 25 °C, shaken 72 h, mean ± SD, n = 4, read-out: Solubility, 5% Glucose): < 1 µg/mL; solubility at 72 h ([1]; pure water, 25 °C, water, pure water, 25 °C, shaken 72 h, mean ± SD, n = 4, read-out: Solubility, Pure Water): < 1 µg/mL; solubility at 72 h ([1]; saline, 25 °C, saline or isotonic, saline, 25 °C, shaken 72 h, mean ± SD, n = 4, read-out: Solubility, Saline): < 1 µg/mL; IC50 ([3]; MDA-MB-231, 72 h incubation, MTT, read-out: IC50): 30.5 nM; IC50 ([4]; Hs578Bst normal breast cells, 72 h incubation, MTT, read-out: IC50): 632 nM; IC50 ([5]; A2780, 72 h incubation, MTT, read-out: IC50): 194 nM; Log P [6]: 3.97 [27]
CC(=O)O[C@H]1C(=O)[C@@]2(C)[C@H]([C@H](OC(=O)c3ccccc3)[C@]3(O)C[C@H](OC(=O)[C@H](OC(=O)CCC(=O)OC4O[C@H](CO)[C@@H](O)[C@H](O)[C@H]4O)[C@@H](NC(=O)c4ccccc4)c4ccccc4)C(C)=C1C3(C)C)[C@]1(OC(C)=O)CO[C@@H]1C[C@@H]2O (stereo partly shown) [SG-PTX, C2′-single glycosylated paclitaxel]	17.9 ± 0.28 (≈ 16 µM)	17.83 ± 0.09 (≈ 16 µM)	17.9 (≈ 16 µM)	49.8	2.77 ± 0.16	149	1670	1080	21.23	Solubility, Pure Water ([1]; pure water, 25 °C, shaken 72 h, mean ± SD, n = 4): 19.93 ± 4.07 µg/mL (≈ 17.9 µM); solubility at 72 h ([7]; aqueous solution, pH adjusted with HCl or NaOH, aqueous buffer, thermodynamic from solid, pH 9 and pH 10, water and two common injection media, 25 °C): ~27 µg/mL (≈ 24.2 µM); change of solubility with pH ([7]; pH level of 1 to 8): no significant change; solubility at 72 h ([8]; 2.5% (v/v) Cremophor EL in water): 807 µg/mL (≈ 723 µM); solubility at 72 h ([8]; 2.5% (v/v) Tween-80 in water): 468 µg/mL (≈ 419 µM); solubility at 72 h ([8]; 15% (v/v) Cremophor EL in water): 1320 µg/mL (≈ 1180 µM); solubility at 72 h ([8]; 15% (v/v) Tween-80 in water): 961 µg/mL (≈ 861 µM); solubility in formulation ([8]; PEG-400 in water, compared with Cremophor EL and Tween-80): the lowest

Reference: PMC6321537 (Molecules, 2018)
